Measured values taken from patent US9884832B2 (priority 2011, dated 2018).

target: AM2 S31 (wild-type serine at position 31 in the M2 protein), influenza virus A/Udorn/72 (Influenza A virus, UniProt P0DOF5); test: cell-based; details: 100 uM; Xenopus oocytes; activity range class; read-out: S31 OOcyte Inhibition at 100 uM (%)
Sequence (P0DOF5 whole entry, looked up): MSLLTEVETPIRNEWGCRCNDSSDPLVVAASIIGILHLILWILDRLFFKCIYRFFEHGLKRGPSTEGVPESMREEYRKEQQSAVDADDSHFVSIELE

SMILES	inhibition at 100 µM [%]
COc1ccc2cc(CNC34CC5CC(CC(C5)C3)C4)ccc2c1 [Example 40a, Adamantan-1-yl-(6-methoxy-naphthalen-2-ylmethyl)-amine]	0 to 30
c1cc(-c2csc(CNC34CC5CC(CC(C5)C3)C4)c2)cs1 [Example 152a, N-([3,3′-bithiophen]-5-ylmethyl)adamantan-1-amine]	0 to 30
c1cc(-c2cc(CNC34CC5CC(CC(C5)C3)C4)no2)cs1 [Example 150a, Adamantan-1-yl-(5-thiophen-3-yl-isoxazol-3-ylmethyl)-amine]	0 to 30

same assay, conditions: Table 1; 100 uM; Xenopus oocytes, pH 5.5, -20 mV; read-out: S31 OOcyte Inhibition at 100 uM (%)

SMILES	inhibition at 100 µM [%]
c1ccc2[nH]c(CNC34CC5CC(CC(C5)C3)C4)cc2c1 [Example 93, Adamantan-1-yl-(1H-indol-2-ylmethyl)-amine]	0 to 30
CSc1ccc(CNC23CC4CC(CC(C4)C2)C3)c(SC)c1 [Example 55, Adamantan-1-yl-(2,4-bis-methylsulfanyl-benzyl)-amine]	0 to 30
N#Cc1ccc(CNC23CC4CC(CC(C4)C2)C3)cc1 [Example 14, 4-(Adamantan-1-ylaminomethyl)-benzonitrile]	31 to 95
Oc1ccc(CNC23CC4CC(CC(C4)C2)C3)cc1F [Example 48, 4-(Adamantan-1-ylaminomethyl)-2-fluoro-phenol]	31 to 95
COc1cc(O)ccc1CNC12CC3CC(CC(C3)C1)C2 [Example 56, 4-(Adamantan-1-ylaminomethyl)-3-methoxy-phenol]	0 to 30
c1coc(COc2ccc(CNC34CC5CC(CC(C5)C3)C4)cc2)c1 [Example 21, Adamantan-1-yl-[4-(furan-2-ylmethoxy)-benzyl]-amine]	31 to 95
Oc1ccc(CNC23CC4CC(CC(C4)C2)C3)c(O)c1 [Example 46, 4-(Adamantan-1-ylaminomethyl)-benzene-1,3-diol]	31 to 95
Cc1cc(CNC23CC4CC(CC(C4)C2)C3)ccc1O [Example 51, 4-(Adamantan-1-ylaminomethyl)-2-methyl-phenol]	31 to 95

same assay, conditions: Table 3; 100 uM; Xenopus oocytes, pH 5.5, -20 mV; read-out: S31 OOcyte Inhibition at 100 uM (%)

SMILES	inhibition at 100 µM [%]
c1c(CNC23CC4CC(CC(C4)C2)C3)noc1C1CCCCC1 [Example 32b, N-((5-cyclohexylisoxazol-3-yl)methyl)adamantan-1-amine]	0 to 30
